Results on one compound are retold here after US20230173018A1, “CASPOFUNGIN DERIVATIVES AND ASSAYS FOR EVALUATING ANTIFUNGAL TREATMENT EFFICACY” (priority 2020, published 2023).

Values after ≈ are worked out from the molar mass of the structure shown.

Type in all cases: cell-based
One experiment has as its system C. albicans CAF2-1. Kind of experiment: microbe, parasite or virus in culture. Particulars: Candida albicans, SC5314. In outline:
(§1)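 The read-out is the minimal inhibitory concentration, obtained by broth double dilution. The strains tested included some that were made caspofungin-resistant by point mutations near the glucan synthase FKS1/FKS2 hotspots.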

The next experiment relates to C. glabrata CST34. Briefly: MIC, broth double dilution. The following applies: Nakaseomyces glabratus; strain no. 21, C. glabrata CST34 (parental); read-out: MIC. In outline: as §1
The next experiment relates to C. glabrata ATCC 2001. Kind of experiment: MIC, broth double dilution. The following applies: Nakaseomyces glabratus, ATCC2001. In outline:
as §1

Experiment [1] has as its system C. glabrata T-193 (11-282). Kind of experiment: MIC, broth double dilution. Particulars: Nakaseomyces glabratus. In outline: as §1
A further experiment deals with C. glabrata BG2. Kind of experiment: MIC, broth double dilution. The following applies: Nakaseomyces glabratus; strain no. 34, C. glabrata BG2; read-out: MIC. An outline of the steps:
as §1

The next experiment concerns C. albicans SC5314. Kind of experiment: MIC, broth double dilution. Particulars: Candida albicans; strain no. 1, C. albicans SC5314, WT; read-out: MIC. In outline: as §1
The test system of another experiment is C. albicans ATCC 24433. Briefly: MIC, broth double dilution. Particulars: Candida albicans, ATCC24433; strain no. 6, C. albicans ATCC 24433; read-out: MIC. An outline of the steps: as §1
The subject of experiment [2] is C. glabrata T-191 (11-331). Briefly: MIC, broth double dilution. Particulars: Nakaseomyces glabratus. In outline: as §1
For a further experiment, the system named is C. albicans BWP17. Kind of experiment: MIC, broth double dilution. Particulars: Candida albicans; strain no. 9, BWP17, parental RM1000; read-out: MIC. An outline of the steps:
as §1

A further experiment concerns C. glabrata ATCC 90030. Briefly: MIC, broth double dilution. The following applies: Nakaseomyces glabratus, ATCC90030. In outline:
as §1

The next experiment has as its system C. glabrata CST109. Briefly: MIC, broth double dilution. The following applies: Nakaseomyces glabratus; strain no. 18, C. glabrata CST109 (parental); read-out: MIC. In outline:
as §1

A further experiment has as its system C. glabrata EF1620. Kind of experiment: MIC, broth double dilution. Particulars: Nakaseomyces glabratus; strain no. 31, C. glabrata EF1620; read-out: MIC. In outline:
as §1

The test system of a further experiment is C. albicans ATCC 10231. Briefly: MIC, broth double dilution. The following applies: Candida albicans, ATCC10231. In outline: as §1
The test system of another experiment is C. glabrata ATCC 15126. Kind of experiment: MIC, broth double dilution. Particulars: Nakaseomyces glabratus, ATCC15126. An outline of the steps: as §1
Experiment [3] deals with C. glabrata T-190 (11-304). Kind of experiment: MIC, broth double dilution. The following applies: Nakaseomyces glabratus. An outline of the steps: as §1
The subject of experiment [4] is C. albicans SC5314 and SN152. Kind of experiment: Competition for cellular uptake with probe 1, flow cytometry. Particulars: added simultaneously with probe 1; caspofungin 1 μM, 10 μM; fluconazole 10 μM. As to the method: To determine if caspofungin competes for cellular uptake with fluorescent probe 1, both the drug and the probe were added simultaneously to cultures of strains SC5314 and SN152. The uptake of probe 1 was measured by flow cytometry every 15 minutes for 1 hour (FIG. 6B). […] No effect on the uptake of probe 1 was detected in cells co-treated with the antifungal azole drug fluconazole, which inhibits the biosynthesis of fungal membrane sterol, ergosterol.
For orientation: Flow cytometry measures light scatter and fluorescence of single cells or particles in a stream.

In the next experiment the test system is C. albicans SC5314 cells. Briefly: Cell viability by propidium iodide (PI) staining, PBS vs YPAD. Particulars: 1 μM. As to the method: To determine whether the caspofungin relocalization and apparent cell damage and death is a feature of caspofungin (and not only of the fluorescent caspofungin probe 1), cell viability was followed using propidium iodide (PI), a dye normally excluded from metabolically active cells.
Cell viability was compared in the presence and absence of 1 μM unlabeled caspofungin, using cells incubated either in PBS or in YPAD. […] Thus, cells exposed to caspofungin in nutrient-rich conditions become permeable to PI, an indicator of cell death. This observation explains the non-specific distribution of probe 1 in the cytoplasm after prolonged incubation (FIG. 7A). It is also consistent with the idea that plasma membrane permeabilization and cell death are likely accompanied by the loss of structural integrity of organelles, including the vacuoles detected here.

In the case of `CC[C@H](C)C[C@H](C)CCCCCCCCC(=O)N[C@H]1C[C@@H](O)[C@@H](NCCN)NC(=O)[C@@H]2[C@@H](O)CCN2C(=O)[C@H]([C@H](O)CCN)NC(=O)[C@H]([C@H](O)[C@@H](O)c2ccc(O)cc2)NC(=O)[C@@H]2C[C@@H](O)CN2C(=O)[C@H]([C@@H](C)O)NC1=O` [Caspofungin], the MIC against C. albicans CAF2-1 was 0.063 µg/mL (≈ 0.0576 µM); with C. glabrata CST34 it was 0.063 µg/mL (≈ 0.0576 µM); in the experiment on C. glabrata ATCC 2001, 0.125 µg/mL (≈ 0.114 µM); in [1], 0.125 µg/mL (≈ 0.114 µM); in the experiment with C. glabrata BG2 it was 0.125 µg/mL (≈ 0.114 µM); in the experiment with C. albicans SC5314, 0.031 µg/mL (≈ 0.0284 µM). Also, the MIC with C. albicans ATCC 24433 was 0.063 µg/mL (≈ 0.0576 µM); in experiment [2] it was 0.063 µg/mL (≈ 0.0576 µM); with C. albicans BWP17 it was 0.031 µg/mL (≈ 0.0284 µM); with C. glabrata ATCC 90030, 0.125 µg/mL (≈ 0.114 µM); in the experiment with C. glabrata CST109, 0.125 µg/mL (≈ 0.114 µM); in the experiment on C. glabrata EF1620, 0.063 µg/mL (≈ 0.0576 µM). The results for the MIC (against C. albicans ATCC 10231; against C. glabrata ATCC 15126; in experiment [3]) were 0.125 µg/mL (≈ 0.114 µM), 0.125 µg/mL (≈ 0.114 µM) and 0.063 µg/mL (≈ 0.0576 µM), respectively. The “effect on the uptake of probe 1” value in experiment [4] is given as “reduced the uptake of probe 1 in a dose-dependent manner”. Also, the “cell viability, PI staining” value is “cells excluded the PI stain” in the experiment on C. albicans SC5314 cells (PBS); “viable” in the experiment with C. albicans SC5314 cells (YPAD, after 15 min); “stained brightly with PI” in the experiment on C. albicans SC5314 cells (YPAD, after 2 h).
